Test results from ChEMBL document CHEMBL4613322, “HOPPI-NMR: Hot-Peptide-Based Screening Assay for Inhibitors of Protein-Protein Interactions by NMR” (ACS Med Chem Lett, 2020).
≈ marks a conversion by molar mass, not a printed value. Each block holds one compound with its values, some of them ahead of it. Peptide text beside a SMILES is read from it.

Experiments:
[1] = biological target: T1, AP-1 complex subunit beta-1 (Homo sapiens, UniProt Q10567); experiment: Binding affinity to beta-adaptin 1 (unknown origin) by fluorescence polarization assay
T1 sequence (Q10567 whole entry): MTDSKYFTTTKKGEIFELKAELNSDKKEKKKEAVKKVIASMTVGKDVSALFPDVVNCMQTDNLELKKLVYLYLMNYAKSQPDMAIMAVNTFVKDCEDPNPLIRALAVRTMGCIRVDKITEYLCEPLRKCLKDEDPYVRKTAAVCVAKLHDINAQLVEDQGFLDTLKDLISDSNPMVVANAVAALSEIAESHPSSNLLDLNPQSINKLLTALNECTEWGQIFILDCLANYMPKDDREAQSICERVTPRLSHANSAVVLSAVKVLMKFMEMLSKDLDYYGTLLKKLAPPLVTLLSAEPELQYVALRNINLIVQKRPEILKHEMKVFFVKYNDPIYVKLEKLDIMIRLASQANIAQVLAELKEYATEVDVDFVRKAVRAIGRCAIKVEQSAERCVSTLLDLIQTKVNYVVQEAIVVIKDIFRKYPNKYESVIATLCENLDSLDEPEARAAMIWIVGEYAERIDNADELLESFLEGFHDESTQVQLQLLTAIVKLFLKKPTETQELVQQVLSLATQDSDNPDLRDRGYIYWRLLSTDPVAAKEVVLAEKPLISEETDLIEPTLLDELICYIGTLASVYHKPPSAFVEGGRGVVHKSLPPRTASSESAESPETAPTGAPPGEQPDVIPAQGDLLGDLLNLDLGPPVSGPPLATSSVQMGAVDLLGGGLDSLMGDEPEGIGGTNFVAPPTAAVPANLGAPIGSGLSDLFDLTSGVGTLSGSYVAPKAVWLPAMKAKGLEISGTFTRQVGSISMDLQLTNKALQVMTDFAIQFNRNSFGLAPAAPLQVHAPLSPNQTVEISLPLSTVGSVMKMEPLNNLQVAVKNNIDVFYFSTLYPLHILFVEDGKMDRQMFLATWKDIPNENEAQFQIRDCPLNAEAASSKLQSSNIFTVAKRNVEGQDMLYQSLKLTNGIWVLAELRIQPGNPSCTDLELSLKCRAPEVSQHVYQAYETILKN

Bcl-2-like protein 1 = Bcl-2-like protein 1 (Mus musculus, UniProt Q64373); experiment: Binding affinity to BCL-xl in murine B-cell lymphoma assessed as inhibition of BCL-xl/Bax protein-protein interaction
[2] = Solubility of compound in PBS; format: physicochemical

Sequence of Bcl-2-like protein 1 (Q64373 whole entry): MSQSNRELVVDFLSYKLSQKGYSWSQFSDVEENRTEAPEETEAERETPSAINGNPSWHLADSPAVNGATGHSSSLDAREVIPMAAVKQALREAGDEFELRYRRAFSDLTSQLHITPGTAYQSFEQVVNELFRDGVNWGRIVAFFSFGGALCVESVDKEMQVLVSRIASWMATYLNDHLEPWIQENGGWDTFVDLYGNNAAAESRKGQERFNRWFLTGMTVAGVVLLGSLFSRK

Kd [1]: 2.1 µM
SMILES: CC[C@H](C)[C@H](NC(=O)[C@H](CC(=O)O)NC(=O)[C@H](CC(=O)O)NC(=O)[C@@H](N)CC(=O)O)C(=O)N[C@H](C(=O)N[C@@H](Cc1ccccc1)C(=O)N[C@@H](CCC(=O)O)C(=O)N[C@@H](CC(=O)O)C(=O)N[C@@H](Cc1ccccc1)C(=O)N[C@@H](C)C(=O)N[C@@H](CCCNC(=N)N)C(=O)N[C@@H](CCC(N)=O)C(=O)N[C@@H](CCCNC(=N)N)C(=O)N[C@@H](CC(C)C)C(=O)N[C@@H](CCCCN)C(=O)NCC(=O)N[C@@H](CCSC)C(=O)N[C@@H](CCCCN)C(=O)N[C@@H](CC(=O)O)C(=O)N[C@@H](CC(=O)O)C(=O)O)C(C)C (H-DDDIVFEDFARQRLKGMKDD-OH)

Kd (Bcl-2-like protein 1): 13 µM
SMILES: CC[C@H](C)[C@H](NC(=O)[C@H](CCCN=C(N)N)NC(=O)[C@H](CCCCN)NC(=O)[C@H](CC(C)C)NC(=O)[C@H](CS)NC(=O)[C@H](CCC(=O)O)NC(=O)[C@H](CO)NC(=O)[C@H](CC(C)C)NC(=O)[C@H](CCCCN)NC(=O)[C@@H](N)CCCCN)C(=O)NCC(=O)N[C@@H](CC(=O)O)C(=O)N[C@@H](CCC(=O)O)C(=O)N[C@@H](CC(C)C)C(=O)N[C@@H](CC(=O)O)C(=O)N[C@@H](CO)C(=O)O (H-KKLSECLKRIGDELDS-OH)

solubility [2]: 100 µM (≈ 58.2 µg/mL)
SMILES: COc1ccc(C2=N[C@@H](c3ccc(Cl)cc3)[C@@H](c3ccc(Cl)cc3)N2C(=O)N2CCNC(=O)C2)c(OC(C)C)c1 [NUTLIN-3]
